# According to PMC10610134, “Verubulin (Azixa) Analogues with Increased Saturation: Synthesis, SAR and Encapsulation in Biocompatible Nanocontainers Based on Ca^2+ or Mg^2+ Cross-Linked Alginate” (Pharmaceuticals, 2023):
# Legend:
# [1] = tested on: immortalized human embryonic kidney cell line HEK293T; assay: MTT cytotoxicity assay, HEK293T; type: cell-based; details: HEK-293T, 64 h treatment, MTT, read-out: IC50, nM HEK293T
# Source text: The obtained series of verubulin analogues 2a–r (which also included three by-products isolated in the reactions according to Scheme 2) were initially evaluated for cytotoxicity against commonly used human breast cancer cell line MCF7′ (fast-growth subclone), human lung epithelial carcinoma cell line A549 and etiologically non-cancer immortalized lung fibroblast cell line VA13 (WI38 subline 2RA). Cytotoxicity against immortalized human embryonic kidney cell line HEK293T, characterized by a high growth rate, was also studied regarding cytotoxicity against non-cancerous fast-growth cells. A standard MTT assay was performed; verubulin (1) served as a positive reference. The data obtained are presented in Table 1 (for dose–response curves, see Supplementary Materials).
# Human breast cancer cell line MCF7′ and human lung adenocarcinoma cell line A549 were kindly provided by Dr. S. Dmitriev (Lomonosov Moscow State University), immortalized human fibroblast cell line VA13 (WI38 subline 2RA) was kindly provided by Dr. M. Rubtsova (Lomonosov Moscow State University), human embryonic kidney HEK293T cell line was kindly provided by Dr. E. Knyazhanskaya (Lomonosov Moscow State University). MCF7′, VA13, A549 and HEK293T cell lines were maintained in DMEM/F-12 (Thermo Fisher Scientific, Waltham, MA, USA) culture medium containing 10% fetal bovine serum (Thermo Fisher Scientific, Waltham, MA, USA) and 50 μg/mL penicillin and 0.05 mg/mL streptomycin at 37 °C (Thermo Fisher Scientific, Waltham, MA, USA) in 5% CO2. Cells were maintained at 37 °C in a humidified MCO-18AC incubator (Sanyo, Tokyo, Japan) supplied with 5% CO2. Cell cultures were tested for the absence of mycoplasma and validated by STR.
# The cytotoxicity of the substances was tested using the 3-(4,5-dimethylthiazol-2-yl)2,5-diphenyl tetrazolium bromide (MTT) assay with some modifications. A total of 2500 cells per well for the MCF7′, HEK293T, A549 cell lines or 4000 cells per well for the VA-13 cell line were plated out in 135 μL of DMEM-F12 media (Gibco, Thermo Fisher Scientific, Waltham, MA, USA) in a 96-well plate and incubated in the 5% CO2 incubator for the first 20 h without treatment. Then, 15.8 μL of media–DMSO solutions of tested substances (final DMSO concentrations in the media were 0.5% or less) was added to the cells (triplicate each) and cells were treated for 64 h with 0.023 mg/L–50 mg/L (eight dilutions) of compounds 2f,n,o,r; 1.14 μg/L–2.5 mg/L (eight dilutions) of compounds 2a,b,d,g,h,k,l,p,q; 57.2 ng/L–125 μg/L (eight dilutions) of compounds 2e,i,j; 22.9 ng/L–50 μg/L (eight dilutions) of compounds 1,2c,m. Doxorubicin was used as a control substance. Then, the MTT reagent (Paneco LLC, Moscow, Russia) was added to cells up to a final concentration of 0.5 g/L (10 × stock solution in PBS was used) and incubated for 2 h at 37 °C in the incubator, under an atmosphere of 5% CO2. Then, the MTT solution was discarded, and 140 μL of DMSO (PharmaMed LLC, Moscow, Russia) was added. The plates were swayed on a shaker (120 rpm) to dissolve the formazan. The absorbance was measured using a microplate reader (VICTOR X5 Light Plate Reader, PerkinElmer, Waltham, MA, USA) at a wavelength of 555 nm (in order to measure formazan concentration). The results were used to construct dose–response graphs and to estimate IC50 values (IC50 is the concentration resulting in half of the maximal cytotoxic effect) with GraphPad Prism V, GraphPadSoftware, Inc., San Diego, CA, USA.
# [2] = tested on: hTERT-immortalized human fibroblasts; assay: MTT assay of nanocontainer formulations, fibroblasts; type: cell-based; details: Fibroblast, 48 h treatment, 2c concentration in formulations = 0.1 × COO− concentration
# Experimental: The MTT assay was carried out on the A549 cell line and non-tumor hTERT-immortalized human fibroblasts for 48 h (Table 2; for cell survival curves, see Supplementary Materials).
# Lung adenocarcinoma A549, breast adenocarcinoma MDA-MB-231 and non-tumor fibroblasts immortalized with h-TERT cell lines were obtained from the American Type Culture Collection (Manassas, VA, USA). Cells were routinely propagated in Dulbecco’s modified Eagle’s medium (DMEM) supplemented with 10% fetal bovine serum (HyClone, Logan, UT, USA), 2 mM L-glutamine, 100 U/mL penicillin and 100 μg/mL streptomycin (PanEco, Moscow, Russia) at 37 °C, 5% CO2 in a humidified atmosphere. Cells in the logarithmic phase of growth were used in the experiments.
# The cytotoxicity of compounds for human cell lines (A549, MDA-MB-231, non-tumor fibroblasts) was assessed in MTT assays. […]
# Cytotoxicity was assessed in a formazan conversion assay (MTT test) after a 48 h exposure. After the completion of drug exposure, 0.5 mg/mL 3-(4,5-dimethylthiazol-2-yl)-2,5-diphenyltetrazolium bromide (MTT reagent) was added to cells for 2 h, the culture medium was removed, cells were resuspended in 100 μL DMSO and the optical densities were measured on a Multiscan FC plate spectrophotometer (Thermo Fisher Scientific, Waltham, MA, USA) at a wavelength of 571 nm. […]
structure (smiles),measurement,setting,value
"COc1ccc(N(C)c2nc(C)nc3c2CCCC3)cc1 [Compound 2c, N-(4-methoxyphenyl)-N,2-dimethyl-5,6,7,8-tetrahydroquinazolin-4-amine]",IC50,[1],2.9 ± 0.5 nM
same,IC50,[2],4.2 ± 0.3 µM
